Measured values taken from patent publication US12122767B2, “Bicyclic heterocycles as FGFR inhibitors” (Incyte Corporation, priority 2019, dated 2024).

Biological target: T1, FGFR3 enzyme (Millipore) (Homo sapiens, UniProt P22607)
T1 construct: purchased Millipore
Test: FGFR Enzymatic Assay (peptide phosphorylation, FRET)
Assay type: biochemical
Conditions: pre-incubated for 4 hours; ATP 140 μM, peptide 500 nM
Method: The inhibitor potency of the exemplified compounds was measured in an enzyme assay that measures peptide phosphorylation using FRET measurements to detect product formation. Inhibitors were serially diluted in DMSO and a volume of 0.5 μL was transferred to the wells of a 384-well plate. For FGFR3, a 10 μL volume of FGFR3 enzyme (Millipore) diluted in assay buffer (50 mM HEPES, 10 mM MgCl2, 1 mM EGTA, 0.01% Tween-20, 5 mM DTT, pH 7.5) was added to the plate and pre-incubated for a time between 5-10 minutes and up to 4 hours. Appropriate controls (enzyme blank and enzyme with no inhibitor) were included on the plate. The assay was initiated by the addition of a 10 μL solution containing biotinylated EQEDEPEGDYFEWLE peptide substrate (SEQ ID NO: 1) and ATP (final concentrations of 500 nM and 140 μM respectively) in assay buffer to the wells. The plate was incubated at 25° C. for 1 hr. The reactions were ended with the addition of 10 μL/well of quench solution (50 mM Tris, 150 mM NaCl, 0.5 mg/mL BSA, pH 7.8; 30 mM EDTA with Perkin Elmer Lance Reagents at 3.75 nM Eu-antibody PY20 and 180 nM APC-Streptavidin). The plate was allowed to equilibrate for ˜1 hr before scanning the wells on a PheraStar plate reader (BMG Labtech).
GraphPad prism3 was used to analyze the data. The IC50 values were derived by fitting the data to the equation for a sigmoidal dose-response with a variable slope. Y=Bottom+(Top-Bottom)/(1+10^((Log IC50−X)*HillSlope)) where X is the logarithm of concentration and Y is the response.
Table 1 provides IC50 data for compounds of the invention assayed in the FGFR Enzymatic Assay after dilution in assay buffer, added to the plate and pre-incubated for 4 hours.

T1 sequence (P22607 23-806): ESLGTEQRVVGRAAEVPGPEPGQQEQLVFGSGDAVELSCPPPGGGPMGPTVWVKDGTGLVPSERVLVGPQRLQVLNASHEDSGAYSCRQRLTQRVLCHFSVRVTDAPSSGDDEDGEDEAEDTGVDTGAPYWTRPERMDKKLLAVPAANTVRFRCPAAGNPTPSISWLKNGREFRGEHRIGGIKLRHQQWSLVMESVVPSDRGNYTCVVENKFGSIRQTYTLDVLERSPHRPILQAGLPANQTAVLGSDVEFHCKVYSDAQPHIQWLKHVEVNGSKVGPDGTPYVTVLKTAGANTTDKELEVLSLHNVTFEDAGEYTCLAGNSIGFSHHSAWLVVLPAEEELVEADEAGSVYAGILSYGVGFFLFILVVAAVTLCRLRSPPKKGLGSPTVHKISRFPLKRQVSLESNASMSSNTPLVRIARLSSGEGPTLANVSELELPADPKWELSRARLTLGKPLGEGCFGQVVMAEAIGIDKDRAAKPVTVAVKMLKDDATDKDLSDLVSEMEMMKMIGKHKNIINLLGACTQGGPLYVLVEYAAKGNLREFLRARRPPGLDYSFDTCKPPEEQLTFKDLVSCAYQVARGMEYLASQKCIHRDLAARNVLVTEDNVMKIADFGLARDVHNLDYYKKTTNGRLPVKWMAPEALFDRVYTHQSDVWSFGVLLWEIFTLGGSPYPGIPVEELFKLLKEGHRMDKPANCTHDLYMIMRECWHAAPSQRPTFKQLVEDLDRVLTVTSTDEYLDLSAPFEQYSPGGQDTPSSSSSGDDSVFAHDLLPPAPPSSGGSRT

Row | SMILES | IC50 [nM]
1 | COc1cc2[nH]nc(-c3cnn(C)c3)c2cc1C(=O)Nc1c(F)cccc1Cl [Example 2, N-(2-Chloro-6-fluorophenyl)-6-methoxy-3-(1-methyl-1H-pyrazol-4-yl)-1H-indazole-5-carboxamide] | < 10
2 | COc1cc2[nH]nc(-c3cnn(C)c3)c2cc1C(=O)Nc1c(C)cc(N(C)C)cc1C [Example 29, N-(4-(Dimethylamino)-2,6-dimethylphenyl)-6-methoxy-3-(1-methyl-1H-pyrazol-4-yl)-1H-indazole-5-carboxamide] | 30 to 200
3 | COc1cc2[nH]nc(-c3cnn(C4CC4)c3)c2cc1C(=O)Nc1c(F)cccc1Cl [Example 18, N-(2-Chloro-6-fluorophenyl)-3-(1-cyclopropyl-1H-pyrazol-4-yl)-6-methoxy-1H-indazole-5-carboxamide] | 10 to 30
4 | COc1cc2[nH]nc(-c3cnn(CC4CCNCC4)c3)c2cc1C(=O)Nc1c(C)cccc1C [Example 39, N-(2,6-Dimethylphenyl)-6-methoxy-3-(1-(piperidin-4-ylmethyl)-1H-pyrazol-4-yl)-1H-indazole-5-carboxamide] | 10 to 30
5 | COc1cc2[nH]nc(-c3cnn(-c4ccccn4)c3)c2cc1C(=O)Nc1c(C)cccc1C [Example 42, N-(2,6-Dimethylphenyl)-6-methoxy-3-(1-(pyridin-2-yl)-1H-pyrazol-4-yl)-1H-indazole-5-carboxamide] | 30 to 200
6 | COc1cc2[nH]nc(-c3cnn(C4CCC4)c3)c2cc1C(=O)Nc1c(F)cccc1Cl [Example 17, N-(2-Chloro-6-fluorophenyl)-3-(1-cyclobutyl-1H-pyrazol-4-yl)-6-methoxy-1H-indazole-5-carboxamide] | < 10
7 | COc1cc2[nH]nc(-c3cnn(C)c3)c2cc1C(=O)Nc1c(C)cccc1C(F)(F)F [Example 4, 6-Methoxy-3-(1-methyl-1H-pyrazol-4-yl)-N-(2-methyl-6-(trifluoromethyl)phenyl)-1H-indazole-5-carboxamide] | < 10
8 | COc1cc2[nH]nc(-c3cnn(C)c3)c2cc1C(=O)Nc1c(C)cccc1OC [Example 9, 6-Methoxy-N-(2-methoxy-6-methylphenyl)-3-(1-methyl-1H-pyrazol-4-yl)-1H-indazole-5-carboxamide] | 30 to 200
9 | COc1cc2[nH]nc(-c3cnn(C)c3)c2cc1C(=O)Nc1c(C)cc(C#N)cc1C [Example 11, N-(4-Cyno-2,6-dimethylphenyl)-6-methoxy-3-(1-methyl-1H-pyrazol-4-yl)-1H-indazole-5-carboxamide] | 10 to 30

The remaining lines, values ahead:

Row | IC50 [nM] | SMILES
10 | < 10 | CCCn1cc(-c2n[nH]c3cc(OC)c(C(=O)Nc4c(C)cccc4C)cc23)cn1 [Example 45, N-(2,6-Dimethylphenyl)-6-methoxy-3-(1-propyl-1H-pyrazol-4-yl)-1H-indazole-5-carboxamide]
11 | < 10 | COC(=O)N1CCC(n2cc(-c3n[nH]c4cc(OC)c(C(=O)Nc5c(C)cccc5C)cc34)cn2)CC1 [Example 24, Methyl 4-(4-(5-((2,6-dimethylphenyl)carbamoyl)-6-methoxy-1H-indazol-3-yl)-1H-pyrazol-1-yl)piperidine-1-carboxylate]
12 | < 10 | CCOC(=O)N1CC(n2cc(-c3n[nH]c4cc(OC)c(C(=O)Nc5c(C)cccc5C)cc34)cn2)C1 [Example 23, Ethyl 3-(4-(5-((2,6-Dimethylphenyl)carbamoyl)-6-methoxy-1H-indazol-3-yl)-1H-pyrazol-1-yl)azetidine-1-carboxylate]
13 | < 10 | COc1cc2[nH]nc(-c3cnn(C4CCN(C)CC4)c3)c2cc1C(=O)Nc1c(C)cccc1C [Example 34, N-(2,6-Dimethylphenyl)-6-methoxy-3-(1-(1-methylpiperidin-4-yl)-1H-pyrazol-4-yl)-1H-indazole-5-carboxamide]
